The target in experiment [1] is T1, human GLP-1 receptor (Homo sapiens, UniProt P43220).
T1 construct: expressed in transfected cells; host or cells: BHK cells, clone FCW467-12A/KZ10-1 (parent line BHKTS13), further transfected with CRE luciferase
The experiment in a line: In vitro potency (CRE luciferase; whole cells). It is filed as cell-based. Further details: EC50/pM (ratio 1% HSA/0% HSA): unit not given here. The following applies: for EC50: BHK cells; for EC50/pM (ratio 1% HSA/0% HSA): ratio of EC50 at 1% HSA to EC50 at 0% HSA. In outline: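 Reporter: CRE-luciferase in BHK cells stably expressing human GLP-1R, 5×10^3 cells/well; compounds tested in buffer containing 0% or 1% HSA.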

In experiment [2] the target is T1, human GLP-1 receptor. The experiment in a line: GLP-1 receptor binding (SPA, displacement of 125I-GLP-1). In outline:
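Tracer [125I]-GLP-1(7-36)NH2 at 0.06 nM final competed on hamster stably transfected cell membranes captured by WGA SPA beads; 120 min, 30 °C, scintillation count.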
(In general: Displacement assays read how much labelled ligand stays bound in the presence of the test substance.)

Setting [3] is: In vitro potency (CRE luciferase) EC50 (0% HSA), 0% HSA.
[4] abbreviates: In vitro potency (CRE luciferase) EC50 (1% HSA), 1% HSA.
Where [5] appears, read: Receptor binding affinity IC50 (high HSA), 2.0% HSA (high albumin).
Where [6] appears, read: Receptor binding affinity IC50 (low HSA), 0.001% HSA (low albumin).

T1 sequence (P43220 24-463): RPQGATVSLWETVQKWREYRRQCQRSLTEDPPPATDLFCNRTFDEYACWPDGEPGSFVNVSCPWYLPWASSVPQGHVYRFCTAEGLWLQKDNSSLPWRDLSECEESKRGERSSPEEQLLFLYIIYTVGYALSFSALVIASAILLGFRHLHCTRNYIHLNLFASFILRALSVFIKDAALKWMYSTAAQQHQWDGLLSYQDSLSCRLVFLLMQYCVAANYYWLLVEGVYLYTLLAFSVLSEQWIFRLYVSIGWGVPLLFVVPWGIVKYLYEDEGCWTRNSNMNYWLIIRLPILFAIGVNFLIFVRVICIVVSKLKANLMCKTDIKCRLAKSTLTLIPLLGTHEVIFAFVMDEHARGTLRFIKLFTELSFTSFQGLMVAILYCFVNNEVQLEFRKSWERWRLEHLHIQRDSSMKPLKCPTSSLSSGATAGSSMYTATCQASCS

Regarding `CC[C@H](C)[C@H](NC(=O)[C@H](Cc1ccccc1)NC(=O)[C@H](CCC(=O)O)NC(=O)[C@H](CCCCNC(=O)[C@@H](N)CCCCNC(=O)COCCOCCNC(=O)COCCOCCNC(=O)CC[C@H](NC(=O)CCCCCCCCCCCOc1ccc(C(=O)O)cc1)C(=O)O)NC(=O)[C@H](C)NC(=O)[C@H](C)NC(=O)[C@H](CCC(N)=O)NC(=O)CNC(=O)[C@H](CCC(=O)O)NC(=O)[C@H](CC(C)C)NC(=O)[C@H](Cc1ccc(O)cc1)NC(=O)[C@H](CO)NC(=O)[C@H](CO)NC(=O)[C@@H](NC(=O)[C@H](CC(=O)O)NC(=O)[C@H](CO)NC(=O)[C@@H](NC(=O)[C@H](Cc1ccccc1)NC(=O)[C@@H](NC(=O)CNC(=O)[C@H](CCC(=O)O)NC(=O)C(C)(C)NC(=O)[C@@H](N)Cc1c[nH]cn1)[C@@H](C)O)[C@@H](C)O)C(C)C)C(=O)N[C@@H](C)C(=O)N[C@@H](Cc1c[nH]c2ccccc12)C(=O)N[C@@H](CC(C)C)C(=O)N[C@H](C(=O)N[C@@H](CCCNC(=N)N)C(=O)NCC(=O)N[C@@H](CCCNC(=N)N)C(=O)N[C@@H](CCCCNC(=O)[C@@H](N)CCCCNC(=O)COCCOCCNC(=O)COCCOCCNC(=O)CC[C@H](NC(=O)CCCCCCCCCCCOc1ccc(C(=O)O)cc1)C(=O)O)C(=O)O)C(C)C` [Example 14, N^ε26-[(2S)-2-amino-6-[[2-[2-[2-[[2-[2-[2-[[(4S)-4-carboxy-4-[12-(4-carboxyphenoxy)dodecanoylamino]butanoyl]amino]ethoxy]ethoxy]acetyl]amino]ethoxy]ethoxy]acetyl]amino]hexanoyl], N^ε37-[(2S)-2-amino-6-[[2-[2-[2-[[2-[2-[2-[[(4S)-4-carboxy-4-[12-(4-carboxyphenoxy)dodecanoylamino]butanoyl]amino]ethoxy]ethoxy]acetyl]amino]ethoxy]ethoxy]acetyl]amino]hexanoyl]-[Aib^8,Arg^34, Lys^37]-GLP-1-(7-37)-peptide], the EC50 at human GLP-1 receptor [1] (setting [3]) came out at 4.8 pM; on human GLP-1 receptor [1] (setting [4]) it was 76 pM. Moreover, the “EC50/pM (ratio 1% HSA/0% HSA)” value at human GLP-1 receptor [1] was determined as 16. Besides, the IC50 at human GLP-1 receptor [2] (setting [5]) is 154 nM; on human GLP-1 receptor [2] (setting [6]), 0.3 nM.

As for `CC[C@H](C)[C@H](NC(=O)[C@H](Cc1ccccc1)NC(=O)[C@H](CCC(=O)O)NC(=O)[C@H](CCCCNC(=O)[C@@H](N)CCCCNC(=O)COCCOCCNC(=O)CC[C@H](NC(=O)CC[C@H](NC(=O)CCCCCCCCCCCOc1ccc(C(=O)O)cc1)C(=O)O)C(=O)O)NC(=O)[C@H](C)NC(=O)[C@H](C)NC(=O)[C@H](CCC(N)=O)NC(=O)CNC(=O)[C@H](CCC(=O)O)NC(=O)[C@H](CC(C)C)NC(=O)[C@H](Cc1ccc(O)cc1)NC(=O)[C@H](CO)NC(=O)[C@H](CO)NC(=O)[C@@H](NC(=O)[C@H](CC(=O)O)NC(=O)[C@H](CO)NC(=O)[C@@H](NC(=O)[C@H](Cc1ccccc1)NC(=O)[C@@H](NC(=O)CNC(=O)[C@H](CCC(=O)O)NC(=O)C(C)(C)NC(=O)[C@@H](N)Cc1c[nH]cn1)[C@@H](C)O)[C@@H](C)O)C(C)C)C(=O)N[C@@H](C)C(=O)N[C@@H](Cc1c[nH]c2ccccc12)C(=O)N[C@@H](CC(C)C)C(=O)N[C@H](C(=O)N[C@@H](CCCNC(=N)N)C(=O)NCC(=O)N[C@@H](CCCNC(=N)N)C(=O)N[C@@H](CCCCNC(=O)[C@@H](N)CCCCNC(=O)COCCOCCNC(=O)CC[C@H](NC(=O)CC[C@H](NC(=O)CCCCCCCCCCCOc1ccc(C(=O)O)cc1)C(=O)O)C(=O)O)C(=O)O)C(C)C` [Example 15, N^ε26-[(2S)-2-amino-6-[[2-[2-[2-[[(4S)-4-carboxy-4-[[(4S)-4-carboxy-4-[12-(4-carboxyphenoxy)dodecanoylamino]butanoyl]amino]butanoyl]amino]ethoxy]ethoxy]acetyl]amino]hexanoyl], N^ε37-[(2S)-2-amino-6-[[2-[2-[2-[[(4S)-4-carboxy-4-[[(4S)-4-carboxy-4-[12-(4-carboxyphenoxy)dodecanoylamino]butanoyl]amino]butanoyl]amino]ethoxy]ethoxy]acetyl]amino]hexanoyl]-[Aib^8,Arg^34,Lys^37]-GLP-1-(7-37)-peptide], the values for the EC50 at human GLP-1 receptor [1] (setting [3]) and on human GLP-1 receptor [1] (setting [4]) were 3.7 pM and 327 pM, respectively. Moreover, on human GLP-1 receptor [1], the “EC50/pM (ratio 1% HSA/0% HSA)” value worked out at 93. Also, the 50% inhibitory concentration (IC50) amounted to 303 nM at human GLP-1 receptor [2] (setting [5]) and 0.35 nM on human GLP-1 receptor [2] (setting [6]).

Regarding `CC[C@H](C)[C@H](NC(=O)[C@H](Cc1ccccc1)NC(=O)[C@H](CCC(=O)O)NC(=O)[C@H](CCCCNC(=O)[C@@H](N)CCCCNC(=O)[C@@H](N)CCCCNC(=O)CC[C@H](NC(=O)CC[C@H](NC(=O)CCCCCCCCCCCOc1ccc(C(=O)O)cc1)C(=O)O)C(=O)O)NC(=O)[C@H](C)NC(=O)[C@H](C)NC(=O)[C@H](CCC(N)=O)NC(=O)CNC(=O)[C@H](CCC(=O)O)NC(=O)[C@H](CC(C)C)NC(=O)[C@H](Cc1ccc(O)cc1)NC(=O)[C@H](CO)NC(=O)[C@H](CO)NC(=O)[C@@H](NC(=O)[C@H](CC(=O)O)NC(=O)[C@H](CO)NC(=O)[C@@H](NC(=O)[C@H](Cc1ccccc1)NC(=O)[C@@H](NC(=O)CNC(=O)[C@H](CCC(=O)O)NC(=O)C(C)(C)NC(=O)[C@@H](N)Cc1c[nH]cn1)[C@@H](C)O)[C@@H](C)O)C(C)C)C(=O)N[C@@H](C)C(=O)N[C@@H](Cc1c[nH]c2ccccc12)C(=O)N[C@@H](CC(C)C)C(=O)N[C@H](C(=O)N[C@@H](CCCNC(=N)N)C(=O)NCC(=O)N[C@@H](CCCNC(=N)N)C(=O)N[C@@H](CCCCNC(=O)[C@@H](N)CCCCNC(=O)[C@@H](N)CCCCNC(=O)CC[C@H](NC(=O)CC[C@H](NC(=O)CCCCCCCCCCCOc1ccc(C(=O)O)cc1)C(=O)O)C(=O)O)C(=O)O)C(C)C` [Example 16, N^ε26-[(2S)-2-amino-6-[[(2S)-2-amino-6-[[(4S)-4-carboxy-4-[[(4S)-4-carboxy-4-[12-(4-carboxyphenoxy)dodecanoylamino]butanoyl]amino]butanoyl]amino]hexanoyl]amino]hexanoyl], N^ε37-[(2S)-2-amino-6-[[(2S)-2-amino-6-[[(4S)-4-carboxy-4-[[(4S)-4-carboxy-4-[12-(4-carboxyphenoxy)dodecanoylamino]butanoyl]amino]butanoyl]amino]hexanoyl]amino]hexanoyl]-[Aib^8,Arg^34,Lys^37]-GLP-1-(7-37)-peptide], the figures for the EC50 at human GLP-1 receptor [1] (setting [3]) and at human GLP-1 receptor [1] (setting [4]) were 3.3 pM and 47 pM, respectively. The “EC50/pM (ratio 1% HSA/0% HSA)” value at human GLP-1 receptor [1] is 14. For the same compound, the IC50 on human GLP-1 receptor [2] (setting [5]) was 199 nM; on human GLP-1 receptor [2] (setting [6]), 0.24 nM.

With `CC[C@H](C)[C@H](NC(=O)[C@H](Cc1ccccc1)NC(=O)[C@H](CCC(=O)O)NC(=O)[C@H](CCCCNC(=O)[C@@H](N)CCCCNC(=O)CC[C@H](NC(=O)CC[C@H](NC(=O)CC[C@H](NC(=O)CCCCCCCCCCCOc1ccc(C(=O)O)cc1)C(=O)O)C(=O)O)C(=O)O)NC(=O)[C@H](C)NC(=O)[C@H](C)NC(=O)[C@H](CCC(N)=O)NC(=O)CNC(=O)[C@H](CCC(=O)O)NC(=O)[C@H](CC(C)C)NC(=O)[C@H](Cc1ccc(O)cc1)NC(=O)[C@H](CO)NC(=O)[C@H](CO)NC(=O)[C@@H](NC(=O)[C@H](CC(=O)O)NC(=O)[C@H](CO)NC(=O)[C@@H](NC(=O)[C@H](Cc1ccccc1)NC(=O)[C@@H](NC(=O)CNC(=O)[C@H](CCC(=O)O)NC(=O)C(C)(C)NC(=O)[C@@H](N)Cc1c[nH]cn1)[C@@H](C)O)[C@@H](C)O)C(C)C)C(=O)N[C@@H](C)C(=O)N[C@@H](Cc1c[nH]c2ccccc12)C(=O)N[C@@H](CC(C)C)C(=O)N[C@H](C(=O)N[C@@H](CCCNC(=N)N)C(=O)NCC(=O)N[C@@H](CCCNC(=N)N)C(=O)N[C@@H](CCCCNC(=O)[C@@H](N)CCCCNC(=O)CC[C@H](NC(=O)CC[C@H](NC(=O)CC[C@H](NC(=O)CCCCCCCCCCCOc1ccc(C(=O)O)cc1)C(=O)O)C(=O)O)C(=O)O)C(=O)O)C(C)C` [Example 17, N^ε26-[(2S)-2-amino-6-[[(4S)-4-carboxy-4-[[(4S)-4-carboxy-4-[[(4S)-4-carboxy-4-[12-(4-carboxyphenoxy)dodecanoylamino]butanoyl]amino]butanoyl]amino]butanoyl]amino]hexanoyl], N^ε37-[(2S)-2-amino-6-[[(4S)-4-carboxy-4-[[(4S)-4-carboxy-4-[[(4S)-4-carboxy-4-[12-(4-carboxyphenoxy)dodecanoylamino]butanoyl]amino]butanoyl]amino]butanoyl]amino]hexanoyl]-[Aib^8,Arg^34,Lys^37]-GLP-1-(7-37)-peptide], the EC50 at human GLP-1 receptor [1] (setting [3]) was 3.3 pM. The IC50 on human GLP-1 receptor [2] (setting [5]) was found to be 632 nM; at human GLP-1 receptor [2] (setting [6]) it was 0.42 nM.

What is called EC50 is the concentration at which the effect is half-maximal. As usually defined, the IC50 is the concentration that inhibits the measured activity by half.
